Results published in patent US20030092759A1, “Anticonvulsant derivatives useful for the treatment of restless limb syndrome and periodic limb movement disorder” (priority 2001, published 2003).
Structures can show the parent of a compound that is named as a salt.

Key:
depression = assay: clinical case study, concurrent depression (Example 1); assay type: in vivo, human; conditions: Example 1, patient; sertraline HCl 100 mg/day added to topiramate 75 mg/day
Experimental: (§1) Prior to treatment, within 15 minutes of falling asleep, the patient was awakened by uncontrollable jerking of their legs. […] The patient had also used lorazepam and alprazolam to treat the RLS, with some benefit.
(§2) The patient was switched to topiramate, initially at 25 mg, with a gradual increase in dosage to 75 mg/day for treatment of the RLS. Sertraline HCl at 100 mg/day was added for the treatment of their concurrent depression. Lorazepam and alprazolam were discontinued. The RLS and depression symptoms were both reduced.

RLS symptoms = conditions: case study report, Hargrave and Beckley 1998; cited from earlier work
[1] = tested on: restless legs syndrome (RLS); assay: clinical case studies of patients with restless legs syndrome; assay type: in vivo, human; conditions: for benefit of earlier treatment of the RLS: before topiramate; for benefit in controlling the RLS, earlier treatment: used in the previous 15 years
Experimental: The ability of the compounds of formula I to treat restless legs syndrome, restless arm syndrome and associated sleep disorders is based on the results of recent clinical case studies, as described in more detail below.
as §1, §2
In the previous 15 years, the patient had also used carisoprodol, chlordiazepoxide HCl, clorazepate dipotassium, meprobamate, phenobarbital, flurazepam HCl, promethazine, levodopa and carbidopa, with some benefit in controlling the RLS.
Topiramate was started at 25 mg/day and increased gradually to 300 mg/day during a six month period.
The patient was a person, with diagnosed recurrent unipolar depression, post traumatic stress disorder, panic disorder, nicotine, alcohol and cannabis dependency. The patient also complained of migraine headaches and restless leg syndrome.
The patient was started at 25 mg HS topiramate, with dosage increased to 100 mg HS and then further increased to a final dosage of 200 mg HS. Concurrent pharmacotherapy included clonazepam at 2 mg/day, desipramine HCl at 10 mg/day, clonidine at […] b.i.d., mirtazepine at 15 mg HS, triamcinolone acetonide prn, albuterol prn, potassium at […], A to Z multivitamin 1×/day and fluticasone propionate prn.

seizures = conditions: several rodent models of epilepsy; cited from earlier work
kindled epilepsy = conditions: animal model of kindled epilepsy; cited from earlier work
[2] = tested on: simple and complex partial seizures and secondarily generalized seizures; conditions: adjunctive therapy or monotherapy; cited from earlier work
[3] = side effects reported in the clinical case studies; assay type: in vivo, human; conditions: Example 2, person; 5 mg/day for the RLS

With `CN[C@H]1CC[C@@H](c2ccc(Cl)c(Cl)c2)c2ccccc21` [Sertraline HCl] as the molecule, how does the depression symptoms (depression) read?
Its depression symptoms is “reduced”.

And the “change of RLS symptoms associated with the drug” value (RLS symptoms)?
Its value is “increase in RLS symptoms”.

For `Cc1nnc2n1-c1ccc(Cl)cc1C(c1ccccc1)=NC2` [alprazolam], which “benefit of earlier treatment of the RLS” value ([1]; Example 1, patient) is on record?
The value was “some benefit”.

For `C[C@@](Cc1ccc(O)c(O)c1)(NN)C(=O)O` [carbidopa], which “benefit in controlling the RLS, earlier treatment” value (shortened to “benefit in controlling the RLS”) ([1]; Example 2, person) is on record?
Its value is “some benefit”.

With `CCCC(C)(COC(N)=O)COC(=O)NC(C)C` (stereo not shown) [carisoprodol] as the molecule, how does the “benefit in controlling the RLS” value ([1]; Example 2, person) read?
The value was “some benefit”.

Which “benefit in controlling the RLS” value ([1]; Example 2, person) does the source give for `CNC1=Nc2ccc(Cl)cc2C(c2ccccc2)=[N+]([O-])C1` [chlordiazepoxide HCl] here?
The value was “some benefit”.

With `O=C1CN=C(c2ccccc2Cl)c2cc([N+](=O)[O-])ccc2N1` [clonazepam] as the molecule, how does the “effect on the RLS symptoms” value ([1]; Example 2, person, 2-4 mg/day) read?
The value was “very little positive effect”.

With `O=C(O)C1N=C(c2ccccc2)c2cc(Cl)ccc2NC1=O` (stereo not shown) [clorazepate dipotassium] as the molecule, how does the “benefit in controlling the RLS” value ([1]; Example 2, person) read?
The value was “some benefit”.

For `CCN(CC)CCN1C(=O)CN=C(c2ccccc2F)c2cc(Cl)ccc21` [flurazepam HCl], which “benefit in controlling the RLS” value ([1]; Example 2, person) is on record?
The value was “some benefit”.

With `N[C@@H](Cc1ccc(O)c(O)c1)C(=O)O` [levodopa] as the molecule, how does the “benefit in controlling the RLS” value ([1]; Example 2, person) read?
The value was “some benefit”.

With `O=C1Nc2ccc(Cl)cc2C(c2ccccc2Cl)=NC1O` (stereo not shown) [lorazepam] as the molecule, how does the “benefit of earlier treatment of the RLS” value ([1]; Example 1, patient) read?
The value was “some benefit”.

For `CCCC(C)(COC(N)=O)COC(N)=O` [meprobamate], which “benefit in controlling the RLS” value ([1]; Example 2, person) is on record?
The value was “some benefit”.

Which “benefit in controlling the RLS” value ([1]; Example 2, person) does the source give for `CC(CN1c2ccccc2Sc2ccccc21)N(C)C` (stereo not shown) [promethazine] here?
The value was “some benefit”.

Which results are given for `CC1(C)O[C@@H]2[C@@H](CO[C@@]3(COS(N)(=O)=O)OC(C)(C)O[C@@H]23)O1` [topiramate, 2,3:4,5-bis-O-(1-methylethylidene)-β-D-fructopyranose sulfamate]?
block of seizures (seizures): effectively block seizures; block of seizures (kindled epilepsy): effectively block seizures; RLS symptoms ([1]; Example 1, patient, topiramate 25 mg increased to 75 mg/day, with sertraline HCl 100 mg/day, lorazepam and alprazolam discontinued): reduced; restless legs syndrome symptoms, patient report ([1]; Example 2, person, 25 mg/day increased to 300 mg/day during six months): successfully reduced; effectiveness for RLS compared with carisoprodol, patient report ([1]; Example 3, person): more effective than carisoprodol; effectiveness for RLS of topiramate and clonazepam in combination, patient report ([1]; Example 3, person, the two drugs in combination): more effective than either drug alone; effectiveness for restless leg syndrome compared with clonazepam 6 mg HS, patient report ([1]; Example 3, person, topiramate 100 mg HS): as effective as clonazepam 6 mg HS; efficacy in treating seizures in clinical trials [2]: effective

For `OC(CCN1CCCCC1)(c1ccccc1)C1CCCCC1` (stereo not shown) [trixenryphenidyl], which side effects [3] is on record?
The side effects was “dry mouth, blurred vision and amnesia”.
